Assay [1] relates to Rattus norvegicus. Description: Antiinflammatory activity against male Sprague-Dawley rat pressure ulcer model assessed as increase in number of fibroblasts administered as ointment by Masson staining based analysis. The format is functional, organism-based.
Assay [2] deals with Rattus norvegicus. The assay can be described thus: Antiinflammatory activity against male Sprague-Dawley rat pressure ulcer model assessed as appearance of orderly arranged cells administered as ointment by H and E staining based analysis. The format is functional, organism-based.
In assay [3] the test system is Rattus norvegicus. The assay can be described thus: Antiinflammatory activity against male Sprague-Dawley rat pressure ulcer model assessed as appearance of thinner epidermal layer administered as ointment by Masson staining based analysis. The format is functional, organism-based.
The subject of assay [4] is Rattus norvegicus. Description: Antiinflammatory activity against male Sprague-Dawley rat pressure ulcer model assessed as reduction in IL6 mRNA expression in skin administered as ointment by qRT-PCR analysis. The format is functional, organism-based.
Assay [5] has as its system Rattus norvegicus. Description: Antiinflammatory activity against male Sprague-Dawley rat pressure ulcer model assessed as appearance of orderly arranged cells administered as ointment by Masson staining based analysis. The class given is functional, organism-based.
The test system of assay [6] is Rattus norvegicus. Description: Antiinflammatory activity against male Sprague-Dawley rat pressure ulcer model assessed as reduction in TNF-alpha mRNA expression in skin administered as ointment by qRT-PCR analysis. The class given is functional, organism-based.
Assay [7] concerns Rattus norvegicus. Description: Antiinflammatory activity against male Sprague-Dawley rat pressure ulcer model assessed as appearance of thinner epidermal layer administered as ointment by H and E staining based analysis. The class given is functional, organism-based.
Assay [8] concerns Rattus norvegicus. The assay can be described thus: Antiinflammatory activity against male Sprague-Dawley rat pressure ulcer model assessed as decrease in inflammatory cells in dermis administered as ointment by H and E staining based analysis. The format is functional, organism-based.
In assay [9] the test system is Rattus norvegicus. Description: Antiinflammatory activity against male Sprague-Dawley rat pressure ulcer model assessed as wound healing rate administration as ointment measured after 7 days (reference value: 70%). The class given is functional. Particulars: time 7 day.
Assay [10] concerns Rattus norvegicus. The assay can be described thus: Antiinflammatory activity against male Sprague-Dawley rat pressure ulcer model assessed as increase in number of fibroblasts administered as ointment by H and E staining based analysis. The format is functional, organism-based.
Assay [11] has as its system Rattus norvegicus. Description: Antiinflammatory activity against male Sprague-Dawley rat pressure ulcer model assessed as decrease in inflammatory cells in dermis administered as ointment by Masson staining based analysis. The format is functional, organism-based.
Assay [12] addresses T1, 3',5'-cyclic-AMP phosphodiesterase 4D (Homo sapiens, UniProt Q08499). Description: Inhibition of PDE4D (unknown origin).
Assay [13] has as its target T1, 3',5'-cyclic-AMP phosphodiesterase 4D. The assay can be described thus: Inhibition of PDE4D (unknown origin) at 1 uM relative to control.
Assay [14] deals with RAW264.7. The assay can be described thus: Cytotoxicity against mouse RAW264.7 cells at 10 uM measured after 24 hrs by CCK-8 method. The format is functional, cell-based.
The test system of assay [15] is RAW264.7. The assay can be described thus: Antiinflammatory activity against mouse RAW264.7 cells assessed as inhibition of LPS-induced TNF-alpha release preincubated for 2 hrs followed by LPS stimulation and measured after 4 hrs by RT-PCR analysis. The class given is functional, cell-based.
In assay [16] the test system is RAW264.7. The assay can be described thus: Cytotoxicity against mouse RAW264.7 cells measured after 24 hrs by CCK-8 method. The class given is functional.
Assay [17] has as its system RAW264.7. The assay can be described thus: Antiinflammatory activity against mouse RAW264.7 cells assessed as inhibition of LPS-induced NO release preincubated for 2 hrs followed by LPS stimulation and measured after 4 hrs by RT-PCR analysis. The class given is functional, cell-based.
Assay [18] relates to Enterococcus faecalis. The assay can be described thus: Antibacterial activity against Enterococcus faecalis BNCC296862 assessed as reduction in bacterial colonies growth at 512 ug/ml measured after 24 hrs by agar plate method. The format is functional, organism-based. Particulars: dose 512.0 µg/ml.
The subject of assay [19] is Enterococcus faecium. Description: Antibacterial activity against Enterococcus faecium BNCC358275 assessed as reduction in bacterial colonies growth at 512 ug/ml measured after 24 hrs by agar plate method. The class given is functional, organism-based. Particulars: dose 512.0 µg/ml.

Calls of active or inactive are those of the source. No cut-off for these calls is given here.

T1 sequence (Q08499 whole entry): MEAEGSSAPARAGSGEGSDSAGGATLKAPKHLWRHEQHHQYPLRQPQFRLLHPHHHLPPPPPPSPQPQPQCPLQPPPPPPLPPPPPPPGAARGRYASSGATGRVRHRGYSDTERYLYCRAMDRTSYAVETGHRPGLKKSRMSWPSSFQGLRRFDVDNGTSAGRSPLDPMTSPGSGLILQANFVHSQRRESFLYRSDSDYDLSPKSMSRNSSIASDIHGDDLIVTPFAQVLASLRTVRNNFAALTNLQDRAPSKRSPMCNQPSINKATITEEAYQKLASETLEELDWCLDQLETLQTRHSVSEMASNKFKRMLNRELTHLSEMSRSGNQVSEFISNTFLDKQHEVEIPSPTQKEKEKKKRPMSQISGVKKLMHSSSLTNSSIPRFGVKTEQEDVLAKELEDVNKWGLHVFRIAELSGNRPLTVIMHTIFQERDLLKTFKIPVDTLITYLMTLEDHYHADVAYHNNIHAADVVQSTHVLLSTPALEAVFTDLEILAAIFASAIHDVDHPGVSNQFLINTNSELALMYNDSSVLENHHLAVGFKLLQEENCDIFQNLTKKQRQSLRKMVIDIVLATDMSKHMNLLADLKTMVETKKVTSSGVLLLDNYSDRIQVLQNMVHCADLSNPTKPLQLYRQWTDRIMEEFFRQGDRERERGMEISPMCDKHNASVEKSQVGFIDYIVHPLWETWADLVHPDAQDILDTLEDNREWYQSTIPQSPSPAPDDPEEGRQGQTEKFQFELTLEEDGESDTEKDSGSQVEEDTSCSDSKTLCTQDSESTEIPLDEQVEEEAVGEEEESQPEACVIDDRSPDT

With `O=C(Nc1c(Cl)cncc1Cl)c1ccc(OC(F)F)c(OCC2CC2)c1` [ROFLUMILAST], the result in assay [1], in [2], in [3], in assay [4], in assay [5] and in assay [6] was Active. For the same compound, the outcome in [7], in assay [8], in [10] and in assay [11] was Active. Also, the Activity in assay [9] is given as 81%.

With `Cn1c(=O)c2c(ncn2CCC(=O)NNC(=O)c2cccc3[nH]c(-c4ccc(OC(F)F)c(OC(F)F)c4)nc23)n(C)c1=O`, the IC50 in [12] was determined as 29 nM. Also, the inhibition in assay [13] worked out at 92.6%. Besides, the result in assay [14] was inactive.

Take `Cn1c(=O)c2c(ncn2CCCC(=O)NNC(=O)c2coc(-c3ccc(OC(F)F)c(OCC4CC4)c3)n2)n(C)c1=O`: in assay [13], the inhibition worked out at 92.4%. Further, the result in [14] was inactive.

As to `Cn1c(=O)c2c(ncn2CCC(=O)NNC(=O)c2cnn3c(-c4ccc(OC(F)F)c(OCC5CC5)c4)ccnc23)n(C)c1=O`, in [13], the inhibition came to 38.8%. In addition, the outcome in assay [14] was inactive.

As for `Cn1c(=O)c2c(ncn2CCCC(=O)NNC(=O)c2cccc3[nH]c(-c4ccc(OC(F)F)c(OC(F)F)c4)nc23)n(C)c1=O`, the IC50 was above 60000 nM in assay [15], 41 nM in [12] and 2180 nM in assay [17]. This compound also yielded a CC50 in assay [16] of 76800 nM. In assay [13], this compound gave an inhibition of 97.9%. Besides, the result in assay [14] was inactive.

In assay [13], `Cn1c(=O)c2c(nc(Br)n2CCCC(=O)NNC(=O)c2coc(-c3ccc(OC(F)F)c(OCC4CC4)c3)n2)n(C)c1=O` gave an inhibition of 85.3%. Also, the result in assay [14] was inactive.

Take `Cn1c(=O)c2c(nc(NCc3ccccc3)n2CCCC(=O)NNC(=O)c2cccc3[nH]c(-c4ccc(OC(F)F)c(OCC5CC5)c4)nc23)n(C)c1=O`: in assay [13], the inhibition was found to be 85.7%. In addition, in assay [14], the result was inactive.

For the compound `Cn1c(=O)c2c(ncn2CCCC(=O)NNC(=O)c2cccc3[nH]c(-c4ccc(OC(F)F)c(OCC5CC5)c4)nc23)n(C)c1=O`, the inhibition in assay [13] was determined as 96.8%. Further, the result in assay [14] was inactive.

The compound `Cn1c(=O)c2c(ncn2CCC(=O)NNC(=O)c2c[nH]c(-c3ccc(OC(F)F)c(OC(F)F)c3)n2)n(C)c1=O` had an inhibition in assay [13] of 82.1%. Also, the outcome in assay [14] was inactive.

`Cn1c(=O)c2c(nc(NCc3ccccc3)n2CCCC(=O)NNC(=O)c2cnn3c(-c4ccc(OC(F)F)c(OCC5CC5)c4)ccnc23)n(C)c1=O`: the inhibition in [13] was 30.3%. Moreover, in [14], the outcome was inactive.

Compound `Cn1c(=O)c2c(ncn2CCCC(=O)NNC(=O)c2csc(-c3ccc(OC(F)F)c(OCC4CC4)c3)n2)n(C)c1=O` had an inhibition in [13] of 98.4%. Moreover, the outcome in assay [14] was inactive.

`Cn1c(=O)c2c(ncn2CCCC(=O)NNC(=O)c2cnn3c(-c4ccc(OC(F)F)c(OCC5CC5)c4)ccnc23)n(C)c1=O` showed an inhibition in [13] of 85.7%. For the same compound, in assay [14], the result was inactive.

`Cn1c(=O)c2c(nc(NCc3ccccc3)n2CCCC(=O)NNC(=O)c2cc3nccc(-c4ccc(OC(F)F)c(OCC5CC5)c4)n3n2)n(C)c1=O` displayed an inhibition in assay [13] of 43%. Moreover, the result in assay [14] was inactive.

`Cn1c(=O)c2c(ncn2CCCC(=O)NNC(=O)c2cc3nccc(-c4ccc(OC(F)F)c(OCC5CC5)c4)n3n2)n(C)c1=O`: in assay [13], the inhibition turned out to be 95.6%. The result in [14] was inactive.

In [13], `Cn1c(=O)c2c(nc(Br)n2CCCC(=O)NNC(=O)c2cccc3[nH]c(-c4ccc(OC(F)F)c(OCC5CC5)c4)nc23)n(C)c1=O` gave an inhibition of 99.2%. The result in [14] was inactive.

For `Cn1c(=O)c2c(ncn2CCC(=O)NNC(=O)c2csc(-c3ccc(OC(F)F)c(OCC4CC4)c3)n2)n(C)c1=O`, the inhibition in [13] worked out at 87.5%. The outcome in assay [14] was inactive.

For the compound `CN[C@H](CC(C)C)C(=O)N[C@H]1C(=O)N[C@@H](CC(N)=O)C(=O)N[C@H]2C(=O)N[C@H]3C(=O)N[C@H](C(=O)N[C@H](C(=O)O)c4cc(O)cc(O)c4-c4cc3ccc4O)[C@H](O)c3ccc(c(Cl)c3)Oc3cc2cc(c3O[C@@H]2O[C@H](CO)[C@@H](O)[C@H](O)[C@H]2O[C@H]2C[C@](C)(N)[C@H](O)[C@H](C)O2)Oc2ccc(cc2Cl)[C@H]1O`, the outcome in assay [18] and in assay [19] was Active.

With `Cn1c(=O)c2c(ncn2CCC(=O)NNC(=O)c2coc(-c3ccc(OC(F)F)c(OCC4CC4)c3)n2)n(C)c1=O`, the inhibition in assay [13] was determined as 63%. Also, the result in assay [14] was inactive.

In assay [13], `Cn1c(=O)c2c(ncn2CCC(=O)NNC(=O)c2c[nH]c(-c3ccc(OC(F)F)c(OCC4CC4)c3)n2)n(C)c1=O` came in with an inhibition of 96.4%. Also, the outcome in assay [14] was inactive.

`Cn1c(=O)c2c(nc(Br)n2CCCC(=O)NNC(=O)c2csc(-c3ccc(OC(F)F)c(OCC4CC4)c3)n2)n(C)c1=O` yielded an inhibition in [13] of 97.2%. The outcome in assay [14] was inactive.

The compound `Cn1c(=O)c2c(nc(Br)n2CCCC(=O)NNC(=O)c2cc3nccc(-c4ccc(OC(F)F)c(OCC5CC5)c4)n3n2)n(C)c1=O` yielded an IC50 in assay [12] of 276 nM. This compound yielded an inhibition in [13] of 94.7%. In assay [14], the outcome was inactive.

In assay [13], `Cn1c(=O)c2c(nc(Br)n2CCCC(=O)NNC(=O)c2cccc3[nH]c(-c4ccc(OC(F)F)c(OC(F)F)c4)nc23)n(C)c1=O` gave an inhibition of 96.8%. The outcome in [14] was inactive.

In the case of `Cn1c(=O)c2c(nc(NCc3ccccc3)n2CCCC(=O)NNC(=O)c2csc(-c3ccc(OC(F)F)c(OCC4CC4)c3)n2)n(C)c1=O`, the inhibition in assay [13] is 89.9%. For the same compound, the outcome in [14] was inactive.

On to `COc1ccc(C2CNC(=O)C2)cc1OC1CCCC1` (stereo not given) [ROLIPRAM], for which the results for the half-maximal inhibitory concentration (IC50) in assay [15] and in assay [17] were 39900 nM and above 60000 nM, respectively. In addition, in assay [16], the 50% cytotoxic concentration (CC50) was above 60000 nM.

As for `Cn1c(=O)c2c(nc(NCc3ccccc3)n2CCCC(=O)NNC(=O)c2coc(-c3ccc(OC(F)F)c(OCC4CC4)c3)n2)n(C)c1=O`, in assay [13], the inhibition worked out at 85.5%. The outcome in [14] was inactive.

In turn, `Cn1c(=O)c2c(ncn2CCC(=O)NNC(=O)c2cccc3[nH]c(-c4ccc(OC(F)F)c(OCC5CC5)c4)nc23)n(C)c1=O` came in with an inhibition in [13] of 96.9%. In assay [14], the outcome was inactive.

Consider `Cn1c(=O)c2c(nc(NCc3ccccc3)n2CCCC(=O)NNC(=O)c2cccc3[nH]c(-c4ccc(OC(F)F)c(OC(F)F)c4)nc23)n(C)c1=O`, for which the inhibition in assay [13] came out at 92.4%. For the same compound, the result in assay [14] was inactive.
